Test results as given in paper PMC4648318, “A novel 2,5-diaminopyrimidine-based affinity probe for Bruton’s tyrosine kinase” (Scientific Reports, 2015).
Values joined by “and” are separate entries in the source; they are usually repeats but may differ in a detail not shown here. Equal values may be shown once. “Also recorded” adds a separate entry of the source. Where a name gives a salt, the structure may show the parent alone.

Experiments:
Btk [1] = molecular target: T1, Btk (Homo sapiens, UniProt Q06187); test: Kinase enzymology assay (HTRF KinEase); assay type: biochemical; set-up: purchased Carna Biosciences; settings: enzymatic assay; values marked * are a single run of duplicates, all others are means of two individual measurements
Procedure: Kinases were purchased from Carna Biosciences. Kinase enzymology assays were performed according to the protocols specified for the HTRF® KinEase™ assays sold by Cisbio Bioassays.
Target sequence in this assay (Q06187 whole entry): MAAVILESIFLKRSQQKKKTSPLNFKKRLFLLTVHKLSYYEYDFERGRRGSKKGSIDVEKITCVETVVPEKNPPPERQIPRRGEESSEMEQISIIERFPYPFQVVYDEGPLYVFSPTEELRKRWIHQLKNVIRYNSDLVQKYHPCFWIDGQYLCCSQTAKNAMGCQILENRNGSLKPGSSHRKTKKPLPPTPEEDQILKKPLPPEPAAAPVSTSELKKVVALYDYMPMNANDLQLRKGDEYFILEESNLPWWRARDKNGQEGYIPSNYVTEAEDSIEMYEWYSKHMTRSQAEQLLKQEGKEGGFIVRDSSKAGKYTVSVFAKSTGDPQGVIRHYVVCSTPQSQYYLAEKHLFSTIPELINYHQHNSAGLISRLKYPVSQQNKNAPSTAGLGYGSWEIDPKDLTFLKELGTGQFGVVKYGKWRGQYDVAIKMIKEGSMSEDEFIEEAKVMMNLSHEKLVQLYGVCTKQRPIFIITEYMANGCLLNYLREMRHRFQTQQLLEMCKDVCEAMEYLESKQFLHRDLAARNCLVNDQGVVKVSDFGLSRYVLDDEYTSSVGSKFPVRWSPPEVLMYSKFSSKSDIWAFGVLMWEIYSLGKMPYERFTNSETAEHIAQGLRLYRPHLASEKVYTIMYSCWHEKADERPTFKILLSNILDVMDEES

Btk [2] = molecular target: T1, Btk; test: Competition assay: blocking of probe 14 labeling of Btk in cells; assay type: cell-based; settings: inhibitor 1 μM for 1 hour, then 0.5 μM probe 14 for 2 hours, OCI-Ly7 cells
Procedure: Competition assay. LY7 cells were preincubated with the compounds (1 μM) for 1 h before labeling with probe 14 under the proper time and concentration conditions. Then, the cells were lysed and analyzed as described above. Supplementary figure S1: competition experiment in OCI-Ly7 cells (a) and Jurkat cells (b). 1.5×10^6 cells were pre-incubated with compounds for 1h at 1μM before labeling with probe 14 for 2h at 0.5μM. Then, lysed, quantified and analyzed by SDS/PAGE and fluorescent gel scanning (fluorescence, CY2).
Target sequence in this assay (Q06187 whole entry): as above

Btk [3] = molecular target: T1, Btk; test: Kinetic study of Btk inhibitors (kinact/Ki, HTRF KinEase); assay type: biochemical; set-up: purchased Carna Biosciences; settings: 0.5 nM Btk, room temperature, preincubation 0-20 min
Procedure: The kinase assays were performed at room temperature. The compounds with serial dilution in DMSO were added into reaction buffer with 0.5 nM Btk, incubating with different periods of time (0 min, 4 min, 8 min, 12 min, 16 min, and 20 min). Enzyme reaction was started by adding ATP and substrate to the reaction mixture. The enzyme activity was measured with HTRF® KinEase™ assays. The data analysis was guided by the book, Enzyme Kinetics by Hans Bisswanger[16].
Target sequence in this assay (Q06187 whole entry): as above

Btk [4] = molecular target: T1, Btk; test: Recombinant protein labeling assay; assay type: binding; settings: recombinant Btk (0.5 μg)
Description: […] The gel was then blotted, and the total Btk levels were detected by standard […]. The concentration course labeling procedure was similar to that for the time course labeling.
Target sequence in this assay (Q06187 whole entry, species assumed): as the sequence (Q06187 whole entry) above

Btk [5] = molecular target: T1, Btk; test: Cellular labeling of Btk by probe 14 in OCI-Ly7 cells; assay type: cell-based
Procedure: Labeling of Btk by probe 14. A total of 1.5 × 10^6 cells were treated with probe 14 at 1 μM for different lengths of times (5 min, 10 min, 20 min, 30 min, 1 h, 2 h, 3 h, or 4 h), washed, lysed in cell lysis buffer (Beyotime) containing 1 mM PMSF and 10 mM NaF (Invitrogen), and centrifuged. The sample protein concentrations were quantified using a NanoDrop 2000 spectrophotometer, and the samples were adjusted to the same concentration then analyzed by SDS/PAGE and fluorescent gel scanning (fluorescence, CY2). The gel was then blotted, and the total Btk levels were detected by a standard Western blot. The concentration course labeling procedure was similar to that for the time course labeling.
Target sequence in this assay (Q06187 whole entry): as above

Jurkat cells = test: Cellular labeling by probe 14 in Jurkat cells (T-cell line that does not express Btk); assay type: cell-based; settings: T-cell line without Btk (Supplementary Figure S1)
Procedure: Supplementary figure S1: competition experiment in OCI-Ly7 cells (a) and Jurkat cells (b). 1.5×10^6 cells were pre-incubated with compounds for 1h at 1μM before labeling with probe 14 for 2h at 0.5μM. Then, lysed, quantified and analyzed by SDS/PAGE and fluorescent gel scanning (fluorescence, CY2).

IC50 (Btk [1])	SMILES	other results
16.7 nM	C=CC(=O)NCC(=O)Nc1cccc(Nc2ncc(Nc3cc(NC(=O)c4cccc(C(F)(F)F)c4)ccc3C)cn2)c1 [Compound 1]	–
44 ± 8.13 nM	C=CC(=O)N[C@@H](C)C(=O)Nc1cccc(Nc2ncc(NC(=O)c3cc(NC(=O)c4cccc(C(F)(F)F)c4)ccc3C)cn2)c1 [Compound 5]	–
15 to 20 nM and 14.7 nM	C=CC(=O)N[C@@H](CCC(=O)O)C(=O)Nc1cccc(Nc2ncc(NC(=O)c3cc(NC(=O)c4cccc(C(F)(F)F)c4)ccc3C)cn2)c1 [Compound 10]	–

The remaining lines, values behind:

SMILES	IC50 (Btk [1])	other results
C=CC(=O)Nc1cccc(Nc2ncc(NC(=O)c3cc(NC(=O)c4cccc(C(F)(F)F)c4)ccc3C)cn2)c1 [Compound 2]	–	Blocking of the labeling of Btk by probe 14 (Btk [2]): effectively blocked; also recorded: completely competed off
C=CC(=O)NCCC(=O)Nc1cccc(Nc2ncc(NC(=O)c3cc(NC(=O)c4cccc(C(F)(F)F)c4)ccc3C)cn2)c1 [Compound 3]	26.7 ± 5.74 nM	–
C=CC(=O)N1CCC[C@H]1C(=O)Nc1cccc(Nc2ncc(NC(=O)c3cc(NC(=O)c4cccc(C(F)(F)F)c4)ccc3C)cn2)c1 [Compound 4]	52.9 ± 0.95 nM	–
C=CC(=O)N[C@@H](CC(C)C)C(=O)Nc1cccc(Nc2ncc(NC(=O)c3cc(NC(=O)c4cccc(C(F)(F)F)c4)ccc3C)cn2)c1 [Compound 6, (S)-N-(2-((3-(2-acrylamido-4-methylpentanamido)phenyl)amino)pyrimidin-5-yl)-2-methyl-5-(3-(trifluoromethyl)benzamido)benzamide]	> 100 nM and 114 nM	–
C=CC(=O)N[C@@H](Cc1ccccc1)C(=O)Nc1cccc(Nc2ncc(NC(=O)c3cc(NC(=O)c4cccc(C(F)(F)F)c4)ccc3C)cn2)c1 [Compound 7]	> 100 nM and 140 nM	–
C=CC(=O)N[C@@H](CO)C(=O)Nc1cccc(Nc2ncc(NC(=O)c3cc(NC(=O)c4cccc(C(F)(F)F)c4)ccc3C)cn2)c1 [Compound 8]	27.4 ± 2.6 nM	–
C=CC(=O)N[C@@H](CC(N)=O)C(=O)Nc1cccc(Nc2ncc(NC(=O)c3cc(NC(=O)c4cccc(C(F)(F)F)c4)ccc3C)cn2)c1 [Compound 9]	15 to 20 nM and 19.8 nM	–
C=CC(=O)N[C@@H](CCCCN)C(=O)Nc1cccc(Nc2ncc(NC(=O)c3cc(NC(=O)c4cccc(C(F)(F)F)c4)ccc3C)cn2)c1 [Compound 11, Trifluoroacetate of (S)-N-(2-((3-(2-acrylamido-6-aminohexanamido)phenyl)amino)pyramidin-5-yl)-2-methyl-5-(3-(trifluoromethyl)benzamido)benzamide]	63 nM and 62.8 nM	kinact/KI (Btk [3]): 135000 ± 4e+08 M⁻¹ s⁻¹
C=CC(=O)N[C@@H](Cc1cnc[nH]1)C(=O)Nc1cccc(Nc2ncc(NC(=O)c3cc(NC(=O)c4cccc(C(F)(F)F)c4)ccc3C)cn2)c1 [Compound 12]	64.2 ± 4.95 nM	–
C#CCCC(=O)NCCCC[C@H](NC(=O)C=C)C(=O)Nc1cccc(Nc2ncc(NC(=O)c3cc(NC(=O)c4cccc(C(F)(F)F)c4)ccc3C)cn2)c1 [Compound 13]	38 nM and 37.5 nM	kinact/KI (Btk [3]): 75000 ± 8e+08 M⁻¹ s⁻¹
C=CC(=O)N[C@@H](CCCCNC(=O)CCC1=[N+]2C(=Cc3c(C)cc(C)n3[B-]2(F)F)C=C1)C(=O)Nc1cccc(Nc2ncc(NC(=O)c3cc(NC(=O)c4cccc(C(F)(F)F)c4)ccc3C)cn2)c1 [Compound 14, (S)-3-(3-((5-acrylamido-6-((3-((5-(2-methyl-5-(3-(trifluoromethyl)benzamido)benzamido)pyrimidin-2-yl)amino)phenyl)amino)-6-oxohexyl)amino)-3-oxopropyl)-5,5-difluoro-7,9-dimethyl-5H-dipyrrolo[1,2-c:2',1'-f][1,3,2]diazaborinin-4-ium-5-uide]	–	Incubation time at which fluorescent signals reached a maximum (Btk [4]): 2 h; Saturation rate of labeling compared with PCI-33380 (Btk [5]; OCI-Ly7 cells (Supplementary Figure S2)): slower saturation rate; Probe concentration at which Btk band intensity reached saturation (Btk [5]; OCI-Ly7 cells, concentration course): 0.5 µM; Incubation time sufficient for labeling (Btk [5]; OCI-Ly7 cells, time course): 2 h; Labeling in Jurkat cells (Jurkat cells): no significant labeling
